Source: the Deep4Chem optical property database
Each block holds one compound with its values, some of them ahead of it.

Assay: solvent given as SMILES

Structure (SMILES): CCn1c2ccccc2c2cc(C#Cc3cc(C#Cc4ccc5c(c4)c4ccccc4n5CC)nc(S(C)(=O)=O)n3)ccc21
absorption maximum (in C1CCOC1): 408 nm
absorption maximum (in CCOC(C)=O): 405 nm
absorption maximum (in CN(C)C=O): 415 nm
absorption maximum (in Cc1ccccc1): 411 nm
absorption maximum (in ClCCl): 417 nm

Structure (SMILES): COC(=O)C1=C(C(=O)OC)C2(c3cc([N+](=O)[O-])ccc3-c3ccc([N+](=O)[O-])cc32)C2(/C=C/c3ccccc3)c3cc(OC)c(OC)cc3CCN12 (stereo unspecified)
absorption maximum (in ClCCl): 337 nm

Structure (SMILES): COc1ccc2c(c1)-c1cc3c(cc1[Si]2(c1ccccc1)c1ccccc1)-c1ccccc1[Si]3(c1ccccc1)c1ccccc1
absorption maximum (in ClCCl): 334 nm

Structure (SMILES): CC1(C)CC(=O)c2c(F)c(F)c(F)c(F)c2N1
absorption maximum (in CC#N): 360 nm

Structure (SMILES): CCCCN1C(=O)C2=C(c3ccc(-c4ccccc4)cc3)[N-]C(=O)C2=C1c1ccc(-c2ccccc2)cc1
absorption maximum (in ClCCl): 585 nm

Structure (SMILES): C(#Cc1ccccc1)C(C#Cc1ccccc1)=Cc1ccccc1
absorption maximum (in ClC(Cl)Cl): 340 nm

Structure (SMILES): CCCCCCOc1ccc(N(c2ccc(OCCCCCC)cc2)c2ccc(-c3sc(-c4ccc(N(c5ccc(OCCCCCC)cc5)c5ccc(OCCCCCC)cc5)cc4)c4nc(-c5ccccc5)c(-c5ccccc5)nc34)cc2)cc1
absorption maximum (in C1CCOC1): 601 nm
absorption maximum (in CC(C)=O): 592 nm
absorption maximum (in CCOC(C)=O): 594 nm
absorption maximum (in CCOCC): 600 nm
absorption maximum (in CN(C)C=O): 598 nm
absorption maximum (in Cc1ccccc1): 600 nm
absorption maximum (in ClC(Cl)Cl): 601 nm
absorption maximum (in ClCCl): 600 nm

Structure (SMILES): CC1(C)C(/C=C/C2=C(c3ccc(C(=O)O)cc3)C(=C/C=C3/N(CCCCS(=O)(=O)[O-])c4ccccc4C3(C)C)/CC2)=[N+](CCCCS(=O)(=O)[O-])c2ccccc21
absorption maximum (in CO): 797 nm

Structure (SMILES): CN1C(=CC2=C([O-])C(=CC3=[N+](C)c4ccccc4C3(C)C)C2=C(C#N)C#N)C(C)(C)c2ccccc21
absorption maximum (in ClC(Cl)Cl): 684 nm

Structure (SMILES): CCN(CC)c1ccc(/C=C/c2cc(/C=C/c3ccc(N(CC)CC)cc3)nc(N)n2)cc1
absorption maximum (in Cc1ccccc1): 418 nm
absorption maximum (in ClC(Cl)Cl): 433 nm

Structure (SMILES): CCCCCCCCN1c2ccc(C#Cc3ccc(F)cc3)cc2Sc2cc(C=O)ccc21
absorption maximum (in C1CCOC1): 378 nm
absorption maximum (in CC#N): 380.01 nm
absorption maximum (in CCCCCC): 376 nm
absorption maximum (in CO): 350 nm
absorption maximum (in CS(C)=O): 388 nm
absorption maximum (in Cc1ccccc1): 381.99 nm
absorption maximum (in ClC(Cl)Cl): 391.99 nm

Structure (SMILES): COc1ccc(O)cc1C=O
absorption maximum (in CO): 355 nm
absorption maximum (in ClC(Cl)Cl): 349 nm

Structure (SMILES): N#Cc1ccc(N)cc1
absorption maximum (in C1CCCCC1): 283 nm
absorption maximum (in CC#N): 272.85 nm
absorption maximum (in CCCCCC): 260.99 nm
absorption maximum (in CCO): 276 nm
absorption maximum (in O): 283 nm
absorption maximum (in OCC(F)(F)F): 264 nm

Structure (SMILES): CCCCCCOC(=O)/C=C/C1=CC2=C(c3c(C)cc(C)cc3C)c3cc(/C=C/C(=O)OCCCCCC)cn3[B-](F)(F)[N+]2=C1
absorption maximum (in ClCCl): 579 nm

Structure (SMILES): CCN(CC)c1cc(F)c(C(=O)c2cc(F)c(F)cc2F)cc1F
absorption maximum (in CCO): 361 nm

Structure (SMILES): CC(C)(C)c1ccc2c(c1)c1cc(C(C)(C)C)ccc1n2-c1cc[n+]2c(c1)-c1ccccc1O[B-]2(F)F
absorption maximum (in Cc1ccccc1): 375 nm

Structure (SMILES): Oc1cccc2ccccc12
absorption maximum (in C1CCCCC1): 303.49 nm

Structure (SMILES): Nc1ccccc1/C=C/C(F)(F)F
absorption maximum (in C1CCOC1): 347 nm

Structure (SMILES): Cc1ccc(C2=C3C=C(I)C(I)=[N+]3[B-](F)(F)n3c2cc(I)c3I)cc1
absorption maximum (in C1CCCCC1): 581 nm
absorption maximum (in CC#N): 571 nm
absorption maximum (in CCO): 577 nm
absorption maximum (in CCOC(C)=O): 573.5 nm
absorption maximum (in CO): 574.5 nm
absorption maximum (in OCC(F)(F)F): 569 nm

Structure (SMILES): O=C1C=C(Nc2ccc(F)cc2[N+](=O)[O-])C(=O)c2ccccc21
absorption maximum (in CO): 448 nm

Structure (SMILES): O=C1c2ccccc2-c2ccccc21
absorption maximum (in C1CCCCC1): 382 nm
absorption maximum (in CC#N): 377 nm
absorption maximum (in CCO): 379 nm
absorption maximum (in c1ccccc1): 380 nm

Structure (SMILES): N#Cc1nn(-c2ccc(Cl)cc2)nc1N1CCCC1
absorption maximum (in CC#N): 346 nm

Structure (SMILES): CCCCCCc1ccc2c3c(ccc2c1)O[B-](F)(F)[N+](c1ccc([N+]2=Cc4c(ccc5cc(CCCCCC)ccc45)O[B-]2(F)F)cc1)=C3
absorption maximum (in C1CCOC1): 425 nm
absorption maximum (in CC#N): 422 nm
absorption maximum (in Cc1ccccc1): 436 nm
absorption maximum (in ClCCl): 430 nm

Structure (SMILES): C#CCOc1ccc(C2=[N+]3C(=Nc4c(-c5ccccc5)cc(-c5ccc(O)cc5)n4[B-]3(F)F)C(c3ccccc3)=C2)cc1
absorption maximum (in CO): 688 nm
absorption maximum (in Cc1ccccc1): 685 nm
absorption maximum (in ClC(Cl)Cl): 680 nm

Structure (SMILES): CCN(CC)c1ccc2cc3ccc(=[N+](CC)CC)cc-3oc2c1
absorption maximum (in CC#N): 525 nm
absorption maximum (in CCO): 526 nm
absorption maximum (in CN(C)C=O): 535 nm
absorption maximum (in O): 550 nm

Structure (SMILES): CCN1c2ccc(-c3cc(C(F)(F)F)[nH]n3)cc2Sc2cc(-c3cc(C(F)(F)F)[nH]n3)ccc21
absorption maximum (in C1CCOC1): 336 nm
absorption maximum (in CC#N): 336 nm
absorption maximum (in CN(C)C=O): 336 nm
absorption maximum (in ClCCl): 334 nm
absorption maximum (in c1ccccc1): 336 nm

Structure (SMILES): COc1cc2c3cc(OC)c(OC)cc3c3cc4c(C)cc(=O)oc4cc3c2cc1OC
absorption maximum (in C1CCOC1): 366 nm
absorption maximum (in CO): 364 nm
absorption maximum (in CS(C)=O): 370 nm
absorption maximum (in Cc1ccccc1): 366 nm
absorption maximum (in ClC(Cl)Cl): 368 nm

Structure (SMILES): FC(F)(F)C(F)(F)C(F)(F)c1nc2c(-c3ccsc3)cc3c4cc(-c5ccsc5)c5nc(C(F)(F)C(F)(F)C(F)(F)F)nc6c(-c7ccsc7)cc(c7cc(-c8ccsc8)c(n1)c2c37)c4c56
absorption maximum (in C1CCOC1): 538 nm

Structure (SMILES): Cc1ccc(-c2c3ccc([nH]3)c3nc(c(-c4ccc(C#N)cc4)c4ccc([nH]4)c4ccc([nH]4)c(-c4ccc(C)cc4)c4ccc2o4)C=C3)cc1
absorption maximum (in C1CCOC1): 451 nm
absorption maximum (in Cc1ccccc1): 452 nm
absorption maximum (in c1ccccc1): 452 nm

Structure (SMILES): CCn1c(-c2ccc(-c3ccc(-c4ccc(-c5n(CC)c6ccccc6[n+]5CC)cc4)c(C)c3)cc2)[n+](CC)c2ccccc21
absorption maximum (in O): 290 nm

Structure (SMILES): CC/[NH+]=c1\cc2oc3cc(NCCC(=O)NC(C)C(=O)OC)c4ccccc4c3nc-2cc1C (stereo unspecified)
absorption maximum (in CCO): 590 nm

Structure (SMILES): c1ccc2c(c1)c1ccccc1n2-c1ccc(-c2ccn3nc(-c4ccc(-n5c6ccccc6c6ccccc65)cc4)nc3c2)cc1
absorption maximum (in C1CCOC1): 342 nm

Structure (SMILES): CCN(CC)c1ccc([N+]2=Cc3ccc4c5c(ccc4c3O[B-]2(c2ccccc2)c2ccccc2)C=[N+](c2ccc(N(CC)CC)cc2)[B-](c2ccccc2)(c2ccccc2)O5)cc1
absorption maximum (in Cc1ccccc1): 558 nm
absorption maximum (in ClCCl): 552 nm

Structure (SMILES): Cc1cccc(C)c1
absorption maximum (in C1CCCCC1): 259.74 nm

Structure (SMILES): CCCCOc1c(C#N)cc2cc(C#N)c(OCCCC)c3c4c(OCCCC)c(C#N)cc5cc(C#N)c(OCCCC)c(c1c23)c54
absorption maximum (in ClCCl): 454 nm

Structure (SMILES): CN(C)c1ccc(-c2nc3cnccc3[nH]2)cc1
absorption maximum (in C1CCCCC1): 327 nm
absorption maximum (in C1CCOC1): 332 nm
absorption maximum (in C1COCCO1): 331 nm
absorption maximum (in CC#N): 335 nm
absorption maximum (in CCCCO): 339 nm
absorption maximum (in CCCO): 339 nm
absorption maximum (in CCO): 340 nm
absorption maximum (in CCOC(C)=O): 332 nm
absorption maximum (in CCOCC): 328 nm
absorption maximum (in CO): 341 nm
absorption maximum (in O): 335 nm

Structure (SMILES): CC(C)(C)c1ccc2oc3nc4oc5ccc(-n6c7ccccc7c7cc(-n8c9ccccc9c9ccccc98)ccc76)cc5c4cc3c2c1
absorption maximum (in ClC(Cl)Cl): 348 nm

The next lines start with the values.

absorption maximum (in ClC(Cl)Cl): 371 nm
Structure (SMILES): CN(C)c1ccc(-c2cc(-c3cccs3)nc(-c3ccccc3)n2)cc1

absorption maximum (in ClCCl): 536 nm
Structure (SMILES): COc1ccc2cc(-c3cc(-c4ccccc4)c4n3[B-](F)(F)[N+]3=C5C=NC=CN5[B-](F)(F)[N+]3=C4)ccc2c1

absorption maximum (in CS(C)=O): 345 nm
Structure (SMILES): Fc1ccc2sc3nc(-c4ccccc4)sc3c2c1

absorption maximum (in ClCCl): 418 nm
Structure (SMILES): COc1ccc2cc(/C=C/c3nc(/C=C/c4ccc(N(C)C)cc4)cc(/C=C/c4ccc(N(C)C)cc4)n3)ccc2c1

absorption maximum (in ClC(Cl)Cl): 410 nm
Structure (SMILES): O=C1CC(c2ccc(Cl)cc2)c2c(c3ccccc3c3nc4ccccc4nc23)O1 (stereo unspecified)

absorption maximum (in ClCCl): 486 nm
Structure (SMILES): c1ccc2c(C3=C(c4cccc5ccccc45)c4cccc5c4c(cc4nc6ccccc6nc45)O3)cccc2c1

absorption maximum (in C1CCOC1): 366 nm
Structure (SMILES): C(=C1c2ccccc2-c2ccccc21)c1ccc(-c2ccc(C=C3c4ccccc4-c4ccccc43)cc2)cc1

absorption maximum (in C1CCOC1): 361 nm
absorption maximum (in C1COCCO1): 361 nm
absorption maximum (in CC#N): 360 nm
absorption maximum (in CCCCCO): 361 nm
absorption maximum (in CCCCO): 360 nm
absorption maximum (in CCCO): 361 nm
absorption maximum (in CCO): 360 nm
absorption maximum (in CO): 360 nm
absorption maximum (in COCCOC): 361 nm
absorption maximum (in ClC(Cl)Cl): 361 nm
absorption maximum (in ClCCl): 361 nm
absorption maximum (in OCCO): 361 nm
Structure (SMILES): COC(=O)c1c2ccccc2nc2ccccc12

absorption maximum (in CCCCCC): 344 nm
absorption maximum (in CCO): 344 nm
absorption maximum (in CCOC(C)=O): 344 nm
absorption maximum (in ClCCl): 347 nm
Structure (SMILES): c1cc2ccc3ccc(-n4c5ccccc5c5ccccc54)c4ccc(c1)c2c34

absorption maximum (in ClCCl): 512 nm
Structure (SMILES): c1ccc(-[n+]2c3ccc4cccc5c6cccc7c8cccc9ccc2c(c98)c(c67)c3c45)cc1

absorption maximum (in ClC(Cl)Cl): 388 nm
Structure (SMILES): O=C1O/C(=C2/C(=O)Oc3ccccc32)C(O)=C1c1ccccc1

absorption maximum (in CS(C)=O): 353 nm
Structure (SMILES): Brc1ccc(-c2nc3sc4ccccc4c3s2)cc1

absorption maximum (in CO): 588 nm
Structure (SMILES): Cc1ccc(C2=C3C=CC(Nc4ccccc4)=[N+]3[B-](F)(F)n3c(Nc4ccccc4)ccc32)cc1

absorption maximum (in ClCCl): 370 nm
Structure (SMILES): CCn1c2cc(-c3cccs3)ccc2c2ccc(-c3cccs3)cc21

absorption maximum (in ClCCl): 408 nm
Structure (SMILES): CCN(CC)c1ccc2c(c1)oc(=O)c1c(C)nc3c(c(-c4ccccc4)nn3C)c12

absorption maximum (in CCO): 382 nm
absorption maximum (in ClCCl): 385 nm
Structure (SMILES): N#Cc1cnc(-c2c3ccccc3cc3ccccc23)nc1

absorption maximum (in ClC(Cl)Cl): 495 nm
Structure (SMILES): c1ccc(N(c2ccccc2)c2ccc(-c3ccc(-c4ccc(-c5cccs5)c5nsnc45)s3)cc2)cc1

absorption maximum (in ClC(Cl)Cl): 435 nm
Structure (SMILES): F[B-]1(F)OC(c2ccc(Br)cc2)=Cc2c3ccccc3c3ccccc3[n+]21

absorption maximum (in CC#N): 396 nm
absorption maximum (in ClCCl): 398 nm
Structure (SMILES): COC(=O)c1cc(=O)n(C)c2cc(-c3ccc(Oc4ccccc4)cc3)sc12

absorption maximum (in C1COCCO1): 415 nm
absorption maximum (in CC#N): 407 nm
absorption maximum (in ClCCl): 407 nm
Structure (SMILES): Cc1nc2cc(/C=C/c3ccc(N(C)C)cc3)ccc2nc1-c1ccccc1
